Data taken from patent US20230301890A1, “COMPOSITIONS COMPRISING UROLITHINS” (Amazentis SA, priority 2022, published 2023).
Entries after “also recorded” stand apart in the source; their conditions may differ.

Tests used:
[1] = system: reconstructed human epidermis (RHE); experiment: PGE2 release in reconstituted human epidermis under UV stimulation; format: cell-based; conditions: UVB (+UVA) irradiated RHE
Procedure: Ten-day-old reconstructed human epidermis (RHE) were placed in maintenance medium. The RHE were topically treated with or without moisturizing creams containing different concentration of Urolithin A active and incubated for 24 hours. The RHE were then rinsed in PBS and irradiated with UVB (+UVA)—850 mJ/cm^2 (+6 J/cm^2) using a SOL500 Sun Simulator equipped with an H2 filter (Dr. Hönle, AG). After irradiation, the treatments were renewed and the RHE were incubated for 24 hours. In parallel, non-irradiated conditions were performed and kept in the dark during the irradiation time. All experimental conditions were performed in n=3. PGE2 released in the culture supernatants was measured using a specific ELISA kit according to the supplier's instructions (Enzo Life Sciences, ref. ADI-900-001). Statistical analysis performed by One-Way Anova.

[2] = system: human skin; experiment: RNA-seq transcriptomics and GSEA of forearm skin biopsies (aging study 1); format: in vivo; conditions: 8 weeks; for expression of collagen genes (COL1A1, COL5A1, COL5A2, COL14A1, COL3A1) / gene set "collagen fibril organization" (Normalized Enrichment Score): 1% Mitopure product; for expression of collagen genes (COL1A1, COL5A1, COL5A2, COL14A1, COL3A1): change vs baseline normalized over placebo; for gene set "collagen fibril organization" (Normalized Enrichment Score): end of study vs baseline, normalized over placebo/vehicle
Procedure: In this study, a cosmetic product with a 1% concentration of the active Mitopure or a placebo product were tested on skin aging for 8 weeks. […] Gene set enrichment analysis (GSEA) was performed using the R package ClusterProfiler [Yu et al., 2012]. Briefly, in each comparison, genes were ranked by age beta score value, and the enrichment of a given gene set among up- or-down regulated genes was statistically tested. The minimum and maximum gene set sizes were set to 10 and 500, respectively. Resulting p-values were adjusted using the BH method. Terms with an adjusted p-value<0.05 were considered as statistically significant. To analyze mitochondrial effects biopsies will be taken from a subpanel on volar forearms prior and after 8 weeks of product application and will be analyzed for biomarkers by 3rd parties (See FIGS. 2 and 4). Gene set enrichment analysis (GSEA) will be employed to look for overrepresentation of known mitochondrial pathways and gene functional categories among the regulated genes expressed in human skin. Genes will be ranked by fold change (high to low) and filtered (unadjusted P value of 0.1 before using them) in the GSEA analysis to reduce the risk of false positives. Gene sets defined by the Gene Ontology (GO) Consortium (http://www.geneontology.org/) will be analyzed. We investigated biological pathways impacted by topical UA application performing RNA-seq transcriptomics of forearm skin biopsies from the aging study I. Gene set enrichment analysis (GSEA) was applied to identify significant pathways changed by UA comparing end of the study to baseline, and normalizing results over vehicle. […] We further studied which UA regulated pathways are involved in the natural skin aging process. […] This gene set includes collagen genes encoding for fibrillar type I and III collagen (FIG. 13B), known to decline in skin with chronological aging 13, photo-aging and smoking 14. […] Among them, […]-1, regulating 3D structure and elasticity 15 and AEBP, encoding for a collagen-interacting protein required for optimal tissue repair 16 (FIG. 13B).

[3] = system: Normal Adult Human Dermal Fibroblasts (NHDF-Ad); experiment: RNA sequencing gene expression in human primary dermal fibroblasts; format: cell-based; conditions: for expression of MMP1: vs DMSO/vehicle
Procedure: Study was conducted on Normal Adult Human Dermal Fibroblasts (NHDF-Ad) from two pooled donors (Catalog #: CC-2511) and Normal Adult Human Epidermal Keratinocytes (NHEK-Ad) from two pooled donors (Catalog #: 00192627, Lonza). The primary skin cells were amplified in flask and seeded in 12-well cell culture plates, filled with 1 mL of culture medium and then incubated at 37° C. with 5% CO2 and saturated hygrometry. The basic culture medium of human dermal fibroblasts was composed of FBM™ medium (Fibroblast Growth Basal Medium) supplemented with insulin 0.1%, hFGF-B 0.1%, GA-1000 0.1% and FBS 2%. The basic culture medium of human keratinocytes was composed of KBM™ Gold medium (Keratinocytes Basal Medium) supplemented with Hydrocortisone, Transferrin, Epinephrine, Gentamycin, Amphotericin B, BPE, hEGF and Insulin. Primary cells were treated at confluency (approximatively 250000 cells per well) with 0.1% DMSO (control), 2.5 μM and 10 μM of Urolithin A for 24 h, and harvested for RNA sequencing and expression profiling using the NGS platform.

O=c1oc2cc(O)ccc2c2ccc(O)cc12 [Urolithin A]
PGE2 secretion compared to irradiated skin treated with basic cream formulation without UA ([1]; all UA concentrations tested): significantly reduces PGE2 secretion | PGE2 secretion compared to irradiated non-treated skin ([1]; cream with UA at 0.5%, 1% and 2%, supernatant ELISA): significantly reduces PGE2 secretion | expression of collagen genes (COL1A1, COL5A1, COL5A2, COL14A1, COL3A1) [2]: significant up-regulation | expression of collagen genes (COL1A1, COL5A1, COL5A2, COL14A1, COL3A1) ([2]; listed as Mitopure): increased expression; also recorded: all upregulated; also recorded: improved expression | gene set "collagen fibril organization" (Normalized Enrichment Score) [2]: significantly upregulated; also recorded: positive | gene set "collagen fibril organization" (Normalized Enrichment Score) ([2]; listed as UA): most significantly activated pathway | genes involved in skin homeostasis (EMILIN-1, AEBP) ([2]; UA 1% topical): rescued age-associated decline | gene sets related to chemokine response ([2]; UA 1% topical, normalized over vehicle): reducing | collagen gene expression (COL1A1) ([3]; 2.5 μM or 10 μM, 24 hours): did not alter | expression of MMP1 ([3]; 2.5 μM or 10 μM, 24 hours): decreases | expression of MMP1 ([3]; 2.5 μM or 10 μM, 24 hours, listed as UA): suppressed the expression | expression of mitophagy genes PARKIN and PINK1 and autophagy genes MAP1LC3 and ULK1 ([3]; 2.5 μM or 10 μM, 24 hours, vs vehicle): dose-dependent increase | expression of mitophagy marker PINK1 ([3]; 2.5 uM or 10 uM, vs DMSO): increased
